Here are results for seven compounds from US20120035187A1 (priority 2009, published 2012).

In assay [1] the test system is hamsters with cerebellar ataxia. As to the kind of experiment: Slant tolerance test in hamsters with cerebellar ataxia. Format: in vivo, hamster. To be noted: for endurable-slant-slope-angle (degree): cerebellar ataxia hamsters; for Endurable-slant-slope-angle (°): hamster with cerebellar ataxia, agent of Example 1, 0.5 ml/hamster intraperitoneally once a day for 56 days. An excerpt: Since NK-4 was confirmed to have a neurodegenerative inhibitory action in Experiment 1, hamsters with cerebellar ataxia (cerebellar ataxia is called “cerebellar A” and hamsters with cerebellar ataxia are called “hamsters with cerebellar A”, hereinafter) as a suitable model for human neurodegenerative diseases (e.g., spinal cerebellar degeneration) were subjected to examine the influence of NK-4 administration on their behaviors and brain tissues. Twenty-five hamsters with natural mutation (Nna1 inhibition), which are known to lose Purkinje's cells after three-weeks of age and then induce a spontaneous onset of kinetic motor ataxia after seven-weeks of age (see Akita K. et al., “J. Neurogenetics”, Vol. 21, pp. 19-29, 2007), had been fed at Hayashibara Biochemical Laboratories., Inc., Okayama, Japan, were randomly allocated to the test groups 1 to 5, five heads in each group, as shown in Table 2. Prior to the onset of cerebellar A (at three-weeks of age), PBS was started to administer to the hamsters in the test group 1 at a dose of 10 ml/kg/day. Prior to the onset of cerebellar A (at three-weeks of age), NK-4 was started to be administered to the hamsters in the test groups 2 to 4 at a daily dose of 20 μg/kg, 100 μg/kg or 500 μg/kg. “IGF-1, human, a product name of insulin-like growth factor, commercialized by Assaypro LLC, MO, USA. These administered ingredients were intraperitoneally administered daily to hamsters once a day up to 10-weeks of age. The degree of symptom of cerebellar A and the improvement effect on the symptom by NK-4 were evaluated with an index of improvement in motor coordination of hamsters by conducting once a week the later described rotarod test and the slant tolerance test. At the age of 10-weeks, the hamsters were subjected to counting the falling down frequency and extracted their brains, which were then histologically evaluated. In parallel, the concentration of glutamic acid in the bloods and cerebrospinal fluids (CSF) of the hamsters was assayed. As a test group 6, five normal hamsters, with the same age as the hamsters with cerebellar A used in the test groups 1 to 5, were provided and tested similarly as the hamsters with cerebellar A in such a manner of intraperitoneally administering PBS to them at a dose of 10 ml/kg/day once a day up to 10-weeks of age.
Hamsters were placed on a slope-angle-variable-board while keeping their heads upward, followed by determining the angle for allowing the hamsters to keep staying thereupon for five seconds for use as an endurable-slant-slope-angle test (see Rivlin et al., “J. Neurosurg.”, Vol. 47, pp. 577-581, […]). The initial slope angle was set to 25 degrees and increased by 5 degrees step by step. When a tested hamster in a static condition fell down within five seconds, the slope angle was decreased by one degree step by step, followed by judging the angle that allows the hamster to keep static staying for five seconds, measuring the tolerable slant-slope-angle, and averaging the data for five heads in each group.
Similarly as in Experiment 2, 130 hamsters with cerebellar ataxia, born within the same week and 3-weeks of age, were randomly divided into 13 groups, consisting of 10 hamsters, respectively. […] The hamsters (10 heads) in the remaining one group were intraperitoneally administered from their age of 3- to 10-weeks with a sterilized 10% maltose solution (pyrogen-free) in an amount of 0.5 ml/hamster (control) once a day for 56 days At the next day after the end of the administration, body weight of each hamster was weighed, followed by performing rotarod test, slope endurance test, and counting of falling down frequency. The types of compounds applied to each group and the results are in Table 25.

Assay [2] concerns ICR mice administered with amyloid β fragment. As to the kind of experiment: Degeneration or defect of hippocampal pyramidal cells, mouse administered with amyloid β fragment, agents of Example 1. Type of assay: in vivo. To be noted: 4-point grade score none (0) to severe (3), average of 10 mice; agent of Example 1, 0.3 ml/head intraperitoneally once a day up to the 8th day. The protocol:
One hundred and thirty ICR mice (commercialized by Charles Liver Laboratories Japan Inc., Kanagawa, Japan) were randomly divided into 13 groups, consisting of 10 mice in each group. Amyloid β fragment, represented by an amino acid sequence of SEQ ID NO: 1, used in Experiment 3 was aged at 37° C. for four days, and administered to the lateral ventricle of each mouse in an amount of 9 nmol/6 μl/mouse (the administration method is referred to “Brain Research”, Vol. 706, pp. 181-193 (1996)). […] The mice (10 heads) in the remaining one group were intraperitoneally administered with a sterilized 10% maltose solution (pyrogen-free) once a day up to the 8th day in an amount of 0.3 ml/mouse (control). On the 8th day after the administration, novel object recognition test (see, Japanese Patent Kokai No. 2008-193941) was performed and the average discrimination index (the ratio of prolonged seeking time for novel object to the total seeking time) as a cognitive function index were shown in Table 26. On the 9th day after the administration, the brain of the mice was anatomically isolated, prepared into tissue samples in conventional manner. Depositions of aggregation of amyloid fragment were observed by staining with Congo red or thioflavin T, and degeneration or defect of hippocampal pyramidal cells concerned with cognitive function. The degeneration or the defect of hippocampal pyramidal cells was evaluated by 4-point grade score, by regarding the condition of the control without administration of amyloid β fragment as “none (O)”, “slight (1)”, “moderate (2)”, and “sever (3)”, and the average scores of 10 mice are shown in Table 20.

The subject of a further assay is PC12-HS cells. As to the kind of experiment: Evaluation A: neurocyte (cell)-growth-promoting action, ALAMAR BLUE. Particulars: for Cell survival percentage (%): cell-growth promotion; for optimum concentration for exhibiting cell-growth-promoting action: from Table 9. Type of assay: cell-based, rat. The protocol:
Then, the effects of test samples were judged as follows:
The relative value of 140 to 199: Equivalent effect to that of NK-4, symbol (∘); The relative value of 200 or higher: Stronger effect than that of NK-4, symbol ([…]). • The results are in Table 6.
The relative fluorescent intensity of each well was determined by using the fluorescent intensity of each well with cells, which had been cultured by admixing with D-MEM medium containing 10% by volume of FBS without any of the compounds, and the intensity of the resulting culture was regarded as 100%. The results are expressed as cell survival percentages (%) in Table 9. […]
The test was conducted twice for each test sample in a triplicate manner and the data were averaged.
Seven compounds as in Table 17, NK-234, NK-26, NK-9815, NK-9694, NK-28 and NK-147 as well as NK-4, were each dissolved in DMSO to give a concentration of 5 mg/ml. […] The test was conducted twice for each test sample in a triplicate manner and the data were averaged.
For orientation: Alamar Blue is a resazurin reagent that responds to reducing activity.

Setting [3] is: no compound = 100%, final concentration 12.5 ng/ml.
The mark [4] stands for this setting: compound concentration 25 ng/ml.
[5] abbreviates: compound concentration 50 ng/ml.
The mark [6] stands for this setting: compound concentration 100 ng/ml.
The mark [7] stands for this setting: compound concentration 200 ng/ml.

For `CCN1C=CC(=CC=C(C=Cc2cc[n+](CC)c3ccccc23)c2cc[n+](CC)c3ccccc23)c2ccccc21.[I-].[I-]` [NK-4], the “endurable-slant-slope-angle (degree)” value in assay [1] (20 μg/kg body weight i.p. once a day, 4-Weeks) turned out to be 42.6 ± 0.5 degree; in assay [1] (20 μg/kg body weight i.p. once a day, 5-Weeks) it was 47.2 ± 0.4 degree; in assay [1] (20 μg/kg body weight i.p. once a day, 6-Weeks), 44.6 ± 0.5 degree; in assay [1] (20 μg/kg body weight i.p. once a day, 7-Weeks) it was 47.0 ± 0.3 degree; in assay [1] (20 μg/kg body weight i.p. once a day, 8-Weeks), 42.8 ± 0.5 degree; in assay [1] (20 μg/kg body weight i.p. once a day, 9-Weeks), 44.4 ± 0.5 degree. In addition, the “endurable-slant-slope-angle (degree)” value came out at 45.8 ± 0.6 degree in assay [1] (20 μg/kg body weight i.p. once a day, 10-Weeks); 41.6 ± 0.4 degree in assay [1] (100 μg/kg body weight i.p. once a day, 4-Weeks); 45.6 ± 0.2 degree in assay [1] (100 μg/kg body weight i.p. once a day, 5-Weeks); 44.4 ± 0.3 degree in assay [1] (100 μg/kg body weight i.p. once a day, 6-Weeks); 46.2 ± 0.4 degree in assay [1] (100 μg/kg body weight i.p. once a day, 7-Weeks); 47.6 ± 0.4 degree in assay [1] (100 μg/kg body weight i.p. once a day, 8-Weeks). For the same compound, the “endurable-slant-slope-angle (degree)” value in assay [1] (100 μg/kg body weight i.p. once a day, 9-Weeks) came out at 46.8 ± 0.3 degree; in assay [1] (100 μg/kg body weight i.p. once a day, 10-Weeks) it was 51.6 ± 0.6 degree; in assay [1] (500 μg/kg body weight i.p. once a day, 4-Weeks), 43.8 ± 0.4 degree; in assay [1] (500 μg/kg body weight i.p. once a day, 5-Weeks) it was 46.4 ± 0.2 degree; in assay [1] (500 μg/kg body weight i.p. once a day, 6-Weeks), 44.0 ± 0.6 degree; in assay [1] (500 μg/kg body weight i.p. once a day, 7-Weeks), 44.6 ± 0.5 degree. Moreover, the “endurable-slant-slope-angle (degree)” value in assay [1] (500 μg/kg body weight i.p. once a day, 8-Weeks) came out at 48.0 ± 0.5 degree; in assay [1] (500 μg/kg body weight i.p. once a day, 9-Weeks) it was 47.5 ± 0.4 degree; in assay [1] (500 μg/kg body weight i.p. once a day, 10-Weeks) it was 51.8 ± 0.4 degree. In addition, the “Endurable-slant-slope-angle (°)” value in assay [1] was found to be 55.8 ± 2.5 °. Also, the “Degeneration/defluxion of hippocampal pyramidal cell” value (“Degeneration/defluxion” below) in assay [2] came to 1.1. The “Cell survival percentage (%)” value in the assay on PC12-HS cells (final concentration 50 ng/ml) is 154 ± 8%; with PC12-HS cells (final concentration 200 ng/ml), 309 ± 68%; in the assay on PC12-HS cells (final concentration 800 ng/ml), 254 ± 54%; in the assay on PC12-HS cells (setting [3]) it was 134 ± 8%. The “Action of enhancing cell growth (%)” value came to 149 ± 20% in the assay on PC12-HS cells (setting [4]), 181 ± 79% in the assay with PC12-HS cells (setting [5]), 301 ± 65% with PC12-HS cells (setting [6]) and 438 ± 48% in the assay with PC12-HS cells (setting [7]). The “optimum concentration for exhibiting cell-growth-promoting action” value in the assay with PC12-HS cells is 200 ng/mL.

With `CCCCN1C=C/C(=C/C=C(/C=C/c2cc[n+](CCCC)c3ccccc23)c2cc[n+](CCCC)c3ccccc23)c2ccccc21` [NK-26], in assay [1], the “Endurable-slant-slope-angle (°)” value was found to be 53.5 ± 1.3 °. Also, the “Degeneration/defluxion” value in assay [2] is 1.1. Also, the “Action of enhancing cell growth (%)” value in the assay with PC12-HS cells (setting [4]) is 275 ± 19%; in the assay with PC12-HS cells (setting [5]) it was 357 ± 35%; with PC12-HS cells (setting [6]) it was 210 ± 12%; in the assay on PC12-HS cells (setting [7]), 210 ± 12%.

As for `CCCCCCCN1C=CC(=CC=C(C=Cc2cc[n+](CCCCCCC)c3ccccc23)c2cc[n+](CCCCCCC)c3ccccc23)c2ccccc21.[I-].[I-]` [NK-28], the “Endurable-slant-slope-angle (°)” value in assay [1] was 51.4 ± 2.2 °. The “Degeneration/defluxion” value in assay [2] came to 1.4. Moreover, the “Action of enhancing cell growth (%)” value is given as 146 ± 10% in the assay on PC12-HS cells (setting [4]), 111 ± 28% with PC12-HS cells (setting [5]), 252 ± 65% in the assay on PC12-HS cells (setting [6]) and 470 ± 17% in the assay on PC12-HS cells (setting [7]).

`CCN1/C(=C/C=C(/C=C/c2sc3ccccc3[n+]2CC)c2sc3ccccc3[n+]2CC)Sc2ccccc21.[I-].[I-]` [NK-100]: the “Endurable-slant-slope-angle (°)” value in assay [1] is reported as 50.3 ± 1.9 °. For the same compound, the “Degeneration/defluxion” value in assay [2] was 0.9. Further, the “Cell survival percentage (%)” value is on record as 288 ± 19% in the assay with PC12-HS cells (final concentration 50 ng/ml), 202 ± 4% in the assay on PC12-HS cells (final concentration 200 ng/ml), 82 ± 15% in the assay with PC12-HS cells (final concentration 800 ng/ml) and 154 ± 156% with PC12-HS cells (setting [3]). In addition, in the assay on PC12-HS cells, the “optimum concentration for exhibiting cell-growth-promoting action” value was determined as 50 ng/mL.

Consider `CCCN1C=CC(=CC=C(C=Cc2cc[n+](CCC)c3ccccc23)c2cc[n+](CCC)c3ccccc23)c2ccccc21.[I-].[I-]` [NK-234], for which the “Action of enhancing cell growth (%)” value in the assay on PC12-HS cells (setting [4]) is reported as 168 ± 45%.

In the case of `CN(C)c1ccc(/C=C/c2oc3ccccc3[n+]2C)cc1` [NK-528], the “Endurable-slant-slope-angle (°)” value in assay [1] is 43.9 ± 3.0 °. Also, the “Degeneration/defluxion” value in assay [2] turned out to be 2.2.

With `COc1ccc2oc(/C=C/c3ccc(N(C)C)cc3)[n+](C)c2c1` [NK-1516], the “Endurable-slant-slope-angle (°)” value in assay [1] worked out at 46.5 ± 2.9 °. In assay [2], the “Degeneration/defluxion” value was 1.9.
